Test results from patent US20090042839A1, “Crystalline forms of ibandronate sodium” (priority 2007, published 2009).

Key:
[1] = Stability of crystalline forms of ibandronate sodium when stored for 3 months at room temperature (polymorphic form by XRD); format: physicochemical; conditions: for crystalline form after storage: storage at room temperature for 3 months; for Results (crystalline form after storage): stored at 25° C., polyethylene bags in closed Aluminium bags, monosodium salt
Procedure: The x-ray powder diffraction was performed on Scintag X-ray powder diffractometer model X'TRA with a solid state detector at room temperature. Copper radiation of 1.5418 Å was used. The sample holder was a round standard aluminum sample holder with rough zero background. The scanning parameters were range: 2-40 degrees two-theta; scan mode: continuous scan; step size: 0.05 degrees; and at a rate of 5 degrees/minute. […]

[2] = Storage of crystalline ibandronate sodium Form C at room temperature for 2 years, retested by XRD; format: physicochemical; conditions: stored at room temperature for 2 years
Procedure: The x-ray powder diffraction was performed on Scintag X-ray powder diffractometer model X'TRA with a solid state detector at room temperature. Copper radiation of 1.5418 Å was used. The sample holder was a round standard aluminum sample holder with rough zero background. The scanning parameters were range: 2-40 degrees two-theta; scan mode: continuous scan; step size: 0.05 degrees; and at a rate of 5 degrees/minute.
Crystalline ibandronate sodium Form C was stored at room temperature for 2 years.

Structure (SMILES)	crystalline form after storage [1]	Results (crystalline form after storage) ([1]; 1 month)	Results (crystalline form after storage) ([1]; 3 months)	crystalline form found by XRD after storage [2]
CCCCCN(C)CCC(O)(P(=O)([O-])O)P(=O)(O)O.[Na+] [Form Alpha, (1-hydroxy-3-(N-methyl-N-pentylamino)propylidene) bisphosphonic acid monosodium salt]	maintained their crystalline form	Alpha	Alpha	
CCCCCN(C)CCC(O)(P(=O)([O-])O)P(=O)(O)O.[Na+] [Form C2, (1-hydroxy-3-(N-methyl-N-pentylamino)propylidene) bisphosphonic acid monosodium salt]	maintained their crystalline form			
CCCCCN(C)CCC(O)(P(=O)([O-])O)P(=O)(O)O.[Na+] [Form C, (1-hydroxy-3-(N-methyl-N-pentylamino)propylidene) bisphosphonic acid monosodium salt, reference compound]	maintained their crystalline form			crystalline ibandronate sodium Form V
CCCCCN(C)CCC(O)(P(=O)([O-])O)P(=O)(O)O.[Na+] [Form n-butanolate, (1-hydroxy-3-(N-methyl-N-pentylamino)propylidene) bisphosphonic acid monosodium salt]	maintained their crystalline form	n-butanolate	n-butanolate	
